Source: US10479795B2 (Incyte Corporation, priority 2016, dated 2019)
pIC50: −log10 of the molar value. Counter-ions that a name gives are not always drawn. Like-named read-outs stand apart in the source and are kept apart here.

Legend:
[1] = tested on: Phosphorylated Ribosomal Protein S6 (RPS6); experiment: THP-1 RPS6 ELISA Assay; type: cell-based, Human; details: THP-1 cells, read-out: PI3Kγ_THP1_RPS6_ELISA IC50
Method in brief: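 IC50 values come from a curve of percent inhibition against log compound concentration, using phospho-RPS6 ELISA (450 nm) on THP-1 lysates. Cells were serum-starved overnight, exposed to compound for 2 h at 37 °C, then challenged 15 min with 10 nM MCP-1.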

[2] = target: PI3Kγ (p110γ) Recombinant Human Protein (Homo sapiens (Human), UniProt P48736); experiment: PI3K-γ Scintillation Proximity Assay; type: biochemical; details: read-out: PI3Kγ IC50
PI3Kγ (p110γ) Recombinant Human Protein, sequence (P48736 whole entry): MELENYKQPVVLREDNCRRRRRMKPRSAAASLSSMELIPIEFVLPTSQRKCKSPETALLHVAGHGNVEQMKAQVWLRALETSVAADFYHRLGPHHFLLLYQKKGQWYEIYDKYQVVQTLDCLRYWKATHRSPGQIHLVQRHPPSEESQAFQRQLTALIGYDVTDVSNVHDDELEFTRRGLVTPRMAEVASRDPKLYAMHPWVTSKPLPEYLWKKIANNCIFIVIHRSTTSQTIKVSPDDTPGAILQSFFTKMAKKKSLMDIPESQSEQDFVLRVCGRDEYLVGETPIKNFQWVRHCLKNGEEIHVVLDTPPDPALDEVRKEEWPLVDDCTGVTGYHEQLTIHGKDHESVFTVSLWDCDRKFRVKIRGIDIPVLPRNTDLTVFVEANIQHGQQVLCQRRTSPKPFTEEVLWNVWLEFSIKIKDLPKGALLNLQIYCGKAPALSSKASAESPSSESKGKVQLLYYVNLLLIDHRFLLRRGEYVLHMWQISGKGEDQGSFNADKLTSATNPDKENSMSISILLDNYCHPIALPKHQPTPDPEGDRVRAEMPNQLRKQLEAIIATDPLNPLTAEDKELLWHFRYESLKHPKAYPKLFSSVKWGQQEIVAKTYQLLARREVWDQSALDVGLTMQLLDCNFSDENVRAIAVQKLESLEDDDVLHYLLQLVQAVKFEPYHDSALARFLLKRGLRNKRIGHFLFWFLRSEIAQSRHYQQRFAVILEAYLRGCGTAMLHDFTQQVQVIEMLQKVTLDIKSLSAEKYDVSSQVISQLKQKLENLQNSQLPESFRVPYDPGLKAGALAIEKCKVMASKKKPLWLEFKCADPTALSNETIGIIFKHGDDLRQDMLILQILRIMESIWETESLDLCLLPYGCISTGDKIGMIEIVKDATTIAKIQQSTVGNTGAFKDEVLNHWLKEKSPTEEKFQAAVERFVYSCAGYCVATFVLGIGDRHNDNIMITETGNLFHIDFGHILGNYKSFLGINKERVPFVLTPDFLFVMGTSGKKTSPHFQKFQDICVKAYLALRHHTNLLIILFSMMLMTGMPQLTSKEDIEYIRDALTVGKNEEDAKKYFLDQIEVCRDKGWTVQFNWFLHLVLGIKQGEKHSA
Method in brief: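 Radiometric SPA readout: […] bound to WGA beads after overnight shaking, IC50 derived from % activity of DMSO control. Reaction used human p110γ, 2 μM ATP, 20 μM PIP2, pH 6.7 MOPS buffer with MgCl2, DTT, CHAPS, 2% DMSO, room temperature.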

[3] = target: PI3Kδ (p110δ/p85α) Recombinant Human Protein (Homo sapiens (Human), UniProt O00329); experiment: PI3Kδ Scintillation Proximity Assay; type: biochemical
PI3Kδ (p110δ/p85α) Recombinant Human Protein, sequence (O00329 whole entry): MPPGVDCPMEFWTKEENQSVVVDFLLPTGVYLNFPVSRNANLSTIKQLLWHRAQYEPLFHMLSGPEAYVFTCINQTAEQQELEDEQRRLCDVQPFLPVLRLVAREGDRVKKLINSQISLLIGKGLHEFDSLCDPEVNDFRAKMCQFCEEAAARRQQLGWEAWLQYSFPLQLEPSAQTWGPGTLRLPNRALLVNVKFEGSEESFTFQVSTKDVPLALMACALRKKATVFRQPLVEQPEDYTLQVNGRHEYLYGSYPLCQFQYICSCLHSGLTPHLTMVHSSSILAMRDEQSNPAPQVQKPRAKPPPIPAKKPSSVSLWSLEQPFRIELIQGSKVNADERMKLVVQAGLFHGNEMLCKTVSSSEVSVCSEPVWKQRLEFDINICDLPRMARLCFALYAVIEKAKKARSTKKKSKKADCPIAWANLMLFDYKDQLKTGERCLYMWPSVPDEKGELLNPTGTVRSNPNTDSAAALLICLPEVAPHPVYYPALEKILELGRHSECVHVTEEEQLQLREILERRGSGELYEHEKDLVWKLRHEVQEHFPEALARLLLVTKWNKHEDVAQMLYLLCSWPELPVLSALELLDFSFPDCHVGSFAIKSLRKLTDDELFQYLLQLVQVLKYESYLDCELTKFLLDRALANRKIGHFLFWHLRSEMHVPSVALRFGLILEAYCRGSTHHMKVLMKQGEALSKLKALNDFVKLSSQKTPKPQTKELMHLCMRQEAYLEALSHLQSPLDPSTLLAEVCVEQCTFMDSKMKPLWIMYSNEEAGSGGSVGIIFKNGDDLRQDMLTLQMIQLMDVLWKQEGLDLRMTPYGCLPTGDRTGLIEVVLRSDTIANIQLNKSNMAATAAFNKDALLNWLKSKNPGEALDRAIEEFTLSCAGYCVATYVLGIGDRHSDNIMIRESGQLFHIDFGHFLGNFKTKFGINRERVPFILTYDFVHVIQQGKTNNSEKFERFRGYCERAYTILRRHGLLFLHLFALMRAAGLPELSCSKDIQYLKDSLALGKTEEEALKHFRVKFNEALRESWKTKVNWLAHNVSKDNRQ
PI3Kδ (p110δ/p85α) Recombinant Human Protein, sequence (P27986 whole entry partner): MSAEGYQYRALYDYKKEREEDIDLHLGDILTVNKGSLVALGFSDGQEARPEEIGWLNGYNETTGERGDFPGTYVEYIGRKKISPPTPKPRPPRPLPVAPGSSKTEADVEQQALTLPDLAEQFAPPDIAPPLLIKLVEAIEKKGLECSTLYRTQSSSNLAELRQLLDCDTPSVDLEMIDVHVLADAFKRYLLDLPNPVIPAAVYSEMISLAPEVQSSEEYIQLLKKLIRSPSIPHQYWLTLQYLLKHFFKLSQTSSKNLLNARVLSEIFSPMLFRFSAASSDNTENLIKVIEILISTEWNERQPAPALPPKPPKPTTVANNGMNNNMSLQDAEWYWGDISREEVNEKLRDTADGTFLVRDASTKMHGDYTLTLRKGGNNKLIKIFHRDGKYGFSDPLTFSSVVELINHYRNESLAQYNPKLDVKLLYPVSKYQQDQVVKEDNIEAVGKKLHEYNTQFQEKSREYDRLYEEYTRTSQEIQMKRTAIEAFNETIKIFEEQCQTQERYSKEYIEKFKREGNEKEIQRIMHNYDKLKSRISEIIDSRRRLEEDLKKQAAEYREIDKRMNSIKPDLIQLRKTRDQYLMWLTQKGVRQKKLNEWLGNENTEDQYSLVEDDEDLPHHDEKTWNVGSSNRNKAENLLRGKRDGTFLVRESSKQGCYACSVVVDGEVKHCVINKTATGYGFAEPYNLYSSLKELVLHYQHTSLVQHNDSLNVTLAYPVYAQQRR
Method in brief: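 Radiometric read-out: 33P-labelled PIP3 product captured on WGA SPA beads and counted, with IC50 fitted from percent activity relative to DMSO control. Enzyme (3.4 nM) was incubated 120 min at room temperature with 20 μM PIP2 and 2 μM ATP at pH 6.7, 2% DMSO.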

Row | pIC50 ([1]; Homo sapiens) | pIC50 [2] | pIC50 [3] | pIC50 [1] | SMILES
1 | 6.30 to 7.00 | > 7.00 | 6.30 to 7.00 | – | Cc1ccc(S(=O)(=O)N[C@H]2CC[C@H](O)CC2)cc1-c1cnc2c(N)nc(-c3ccnn3C)cn12 [Example 28, 3-[8-Amino-6-(1-methyl-1H-pyrazol-5-yl)imidazo[1,2-a]pyrazin-3-yl]-N-(trans-4-hydroxycyclohexyl)-4-methylbenzenesulfonamide]
2 | 6.00 to 6.30 | > 7.00 | 6.30 to 7.00 | – | N#CC12CCC(NS(=O)(=O)c3cc(-c4cnc5c(N)nc(C(F)(F)F)cn45)ccc3F)(C1)C2 [Example 396, 5-(8-Amino-6-(trifluoromethyl)imidazo[1,2-a]pyrazin-3-yl)-N-(4-cyanobicyclo[2.1.1]hexan-1-yl)-2-fluorobenzenesulfonamide trifluoroacetate salt]
3 | 6.30 to 7.00 | > 7.00 | 6.30 to 7.00 | – | Cc1ccc(S(=O)(=O)NC23CC(F)(C2)C3)cc1-c1cnc2c(N)nc(C(F)(F)F)cn12 [Example 285, 3-(8-Amino-6-(trifluoromethyl)imidazo[1,2-a]pyrazin-3-yl)-N-(3-fluorobicyclo[1.1.1]pentan-1-yl)-4-methylbenzenesulfonamide trifluoroacetate salt]
4 | > 7.00 | > 7.00 | 6.30 to 7.00 | – | Cc1cc(F)c(S(=O)(=O)N[C@H]2CC[C@H](CC#N)OC2)cc1-c1cnc2c(N)nc(C(F)(F)F)cn12 [Example 405, 5-(8-amino-6-(trifluoromethyl)imidazo[1,2-a]pyrazin-3-yl)-N-((3S,6R)-6-(cyanomethyl)tetrahydro-2H-pyran-3-yl)-2-fluoro-4-methylbenzenesulfonamide trifluoroacetate salt]
5 | < 6.00 | > 7.00 | 5.70 to 6.30 | – | Cc1ccc(S(=O)(=O)NCC2(C)COC2)cc1-c1cnc2c(N)nccn12 [Example 15, 3-(8-Aminoimidazo[1,2-a]pyrazin-3-yl)-4-methyl-N-[(3-methyloxetan-3-yl)methyl]benzenesulfonamide trifluoroacetate]
6 | 6.30 to 7.00 | > 7.00 | 6.30 to 7.00 | – | Cc1ccc(S(=O)(=O)N[C@H]2CC[C@@H](O)CC2)cc1-c1cnc2c(N)ncnn12 [Example 63, 3-(4-Aminoimidazo[2,1-f][1,2,4]triazin-7-yl)-N-(cis-4-hydroxycyclohexyl)-4-methylbenzenesulfonamide]
7 | 6.00 to 6.30 | > 7.00 | 6.30 to 7.00 | – | Cc1ccc(S(=O)(=O)NC2(C#N)CCC2)cc1-c1cnc2c(N)ncnn12 [Example 192, 3-(4-aminoimidazo[2,1-f][1,2,4]triazin-7-yl)-N-(1-cyanocyclobutyl)-4-methylbenzenesulfonamide trifluoroacetate]
8 | – | > 7.00 | 6.30 to 7.00 | 6.30 to 7.00 | Cc1ccc(S(=O)(=O)N[C@H]2CC[C@](C)(O)CC2)cc1-c1cnc2c(N)nc(C(F)(F)F)nn12 [Example 327, 3-(4-Amino-2-(trifluoromethyl)imidazo[1,2-f][1,2,4]triazin-7-yl)-N-((1r,4r)-4-hydroxy-4-methylcyclohexyl)-4-methylbenzenesulfonamide trifluoroacetate salt]
9 | < 6.00 | > 7.00 | 5.70 to 6.30 | – | Cc1ccc(S(=O)(=O)N2CC3C(O)C2CN3C2CCCC2C#N)cc1-c1cnc2c(N)nc(C(F)(F)F)nn12 (stereo not drawn) [Example 353, 2-(5-((3-(4-amino-2-(trifluoromethyl)imidazo[2,1-f][1,2,4]triazin-7-yl)-4-methylphenyl)sulfonyl)-7-hydroxy-2,5-diazabicyclo[2.2.1]heptan-2-yl)cyclopentane-1-carbonitrile]
10 | < 6.00 | > 7.00 | 5.70 to 6.30 | – | CO[C@H]1CC[C@H](NS(=O)(=O)c2ccc(C)c(-c3cnc4c(N)ncnn34)c2)CC1 [Example 70, 3-(4-Aminoimidazo[2,1-f][1,2,4]triazin-7-yl)-N-(trans-4-methoxycyclohexyl)-4-methylbenzenesulfonamide]
11 | 6.00 to 6.30 | > 7.00 | 6.30 to 7.00 | – | Cc1ccc(S(=O)(=O)N[C@H]2CC[C@H](CC#N)OC2)cc1-c1cnc2c(N)nc(C(=O)NC3CCC3)cn12 [Example 450, 8-amino-3-(5-(N-((3S,6R)-6-(cyanomethyl)tetrahydro-2H-pyran-3-yl)sulfamoyl)-2-methylphenyl)-N-cyclobutylimidazo[1,2-a]pyrazine-6-carboxamide trifluoroacetate salt]
12 | > 7.00 | > 7.00 | 6.30 to 7.00 | – | Cc1ccc(S(=O)(=O)N[C@H]2CC[C@H](O)CC2)cc1-c1cnc2c(N)cc(Cl)cn12 [Example 4, 3-(8-Amino-6-chloroimidazo[1,2-a]pyridin-3-yl)-N-(trans-4-hydroxycyclohexyl)-4-methylbenzenesulfonamide trifluoroacetate]
13 | 6.30 to 7.00 | > 7.00 | 5.70 to 6.30 | – | Nc1nc(C(F)(F)F)cn2c(-c3cc(S(=O)(=O)NC45CCC(CO)(C4)C5)ccc3Cl)cnc12 [Example 393, 3-(8-Amino-6-(trifluoromethyl)imidazo[1,2-a]pyrazin-3-yl)-4-chloro-N-(4-(hydroxymethyl)bicyclo[2.1.1]hexan-1-yl)benzenesulfonamide]
14 | 6.00 to 6.30 | > 7.00 | 6.30 to 7.00 | – | [2H][C@]1(NS(=O)(=O)c2ccc(C)c(-c3cnc4c(N)ncnn34)c2)CC[C@@](C)(O)CC1 [Example 507, 3-(4-Aminoimidazo[2,1-f][1,2,4]triazin-7-yl)-N-((1s,4s)-4-hydroxy-4-methylcyclohexyl-1-d)-4-methylbenzenesulfonamide]
15 | – | > 7.00 | > 7.00 | 6.30 to 7.00 | Cc1ccc(S(=O)(=O)NC23CCC(CC2)CC3)cc1-c1cnc2c(N)ncnn12 [Example 181, 3-(4-aminoimidazo[1,2-f][1,2,4]triazin-7-yl)-N-(bicyclo[2.2.2]octan-1-yl)-4-methylbenzenesulfonamide trifluoroacetate salt]
16 | 6.00 to 6.30 | > 7.00 | 6.30 to 7.00 | – | Cc1ccc(S(=O)(=O)N[C@H]2CC[C@H](CC#N)OC2)cc1-c1cnc2c(N)nc(C(=O)NC3CC(F)(F)C3)cn12 [Example 451, 8-amino-3-(5-(N-((3S,6R)-6-(cyanomethyl)tetrahydro-2H-pyran-3-yl)sulfamoyl)-2-methylphenyl)-N-(3,3-difluorocyclobutyl)imidazo[1,2-a]pyrazine-6-carboxamide trifluoroacetate salt]
17 | 6.30 to 7.00 | > 7.00 | 6.30 to 7.00 | – | Cc1ccc(S(=O)(=O)NC23CC(CN4CCOCC4)(C2)C3)cc1-c1cnc2c(N)nc(C(F)(F)F)cn12 [Example 289, 3-(8-Amino-6-(trifluoromethyl)imidazo[1,2-a]pyrazin-3-yl)-4-methyl-N-(3-(morpholinomethyl)bicyclo[1.1.1]pentan-1-yl)benzenesulfonamide trifluoroacetate salt]
18 | < 6.00 | > 7.00 | 5.70 to 6.30 | – | Cc1ccc(S(=O)(=O)NCC2CCOC2)cc1-c1cnc2c(N)nccn12 (stereo not drawn) [Example 48, 3-(8-Aminoimidazo[1,2-a]pyrazin-3-yl)-4-methyl-N-(tetrahydrofuran-3-ylmethyl)benzenesulfonamide]
19 | > 7.00 | > 7.00 | 5.70 to 6.30 | – | [2H]C([2H])([2H])c1ccc(S(=O)(=O)N(C)C23CCC(C#N)(C2)C3)cc1-c1cnc2c(N)ncnn12 [Example 261, 3-(4-Aminoimidazo[2,1-f][1,2,4]triazin-7-yl)-N-(4-cyanobicyclo[2.1.1]hexan-1-yl)-N-methyl-4-(methyl-d3)benzenesulfonamide]
20 | 6.30 to 7.00 | > 7.00 | 6.30 to 7.00 | – | Cc1ccccc1-c1cn2c(-c3cc(S(=O)(=O)N[C@H]4CC[C@H](O)CC4)ccc3C)cnc2c(N)n1 [Example 17, 3-[8-Amino-6-(2-methylphenyl)imidazo[1,2-a]pyrazin-3-yl]-N-(trans-4-hydroxycyclohexyl)-4-methylbenzenesulfonamide]
21 | – | > 7.00 | 5.70 to 6.30 | < 6.00 | Cc1ccc(S(=O)(=O)NCC2CCN(C(=O)C3CC3)CC2)cc1-c1cnc2c(N)nccn12 [Example 86, 3-(8-aminoimidazo[1,2-a]pyrazin-3-yl)-N-((1-(cyclopropanecarbonyl)piperidin-4-yl)methyl)-4-methylbenzenesulfonamide]

Row | SMILES | pIC50 ([1]; Homo sapiens) | pIC50 [2] | pIC50 [3] | pIC50 [1]
22 | Cc1ccc(S(=O)(=O)NC2CCOC2C)cc1-c1cnc2c(N)ncnn12 (stereo not drawn) [Example 100, 3-(4-Aminoimidazo[1,2-f][1,2,4]triazin-7-yl)-4-methyl-N-(2-methyltetrahydrofuran-3-yl)benzenesulfonamide trifluoroacetate salt] | – | > 7.00 | 5.70 to 6.30 | 6.00 to 6.30
23 | N#CC12CCC(NS(=O)(=O)c3cccc(-c4cnc5c(N)ncnn45)c3)(C1)C2 [Example 364, 3-(4-Aminoimidazo[1,2-f][1,2,4]triazin-7-yl)-N-(4-cyanobicyclo[2.1.1]hexan-1-yl)benzenesulfonamide trifluoroacetate salt] | – | > 7.00 | 6.30 to 7.00 | > 7.00
